In PubChem BioAssay AID1259407 (Chemical Carcinogenesis Research Information System (CCRIS), 2018):
Active and inactive are the calls of the source. The rule behind the calls is not given here.

Test system: CCRIS mutagenicity, Ames/micronucleus/aberration tests
Experiment: CCRIS mutagenicity studies
Conditions: Test System: AMES SALMONELLA TYPHIMURIUM
[1] = Strain/Indicator: TA98, Metabolic Activation: NONE, Method: STANDARD PLATE

Structure (SMILES): OC(Nc1snc2ccccc12)C(Cl)(Cl)Cl (stereo not given)
- mutagenic call [1]: inactive; negative
- mutagenic call (Strain/Indicator: TA98, Metabolic Activation: S-9, Method: STANDARD PLATE): inactive; negative
- mutagenic call (Strain/Indicator: TA100, Metabolic Activation: NONE, Method: STANDARD PLATE): inactive; negative
- mutagenic call (Strain/Indicator: TA100, Metabolic Activation: S-9, Method: STANDARD PLATE): inactive; negative
- mutagenic call (Strain/Indicator: TA1535, Metabolic Activation: NONE, Method: STANDARD PLATE): inactive; negative
- mutagenic call (Strain/Indicator: TA1535, Metabolic Activation: S-9, Method: STANDARD PLATE): inactive; negative
- mutagenic call (Strain/Indicator: TA1537, Metabolic Activation: NONE, Method: STANDARD PLATE): inactive; negative
- mutagenic call (Strain/Indicator: TA1537, Metabolic Activation: S-9, Method: STANDARD PLATE): inactive; negative

Structure (SMILES): CCCCCCCCOC(=O)c1ccccc1C(=O)OCCCCCCCC
- mutagenic call (Strain/Indicator: TA98, Metabolic Activation: HAMSTER, LIVER, S-9, AROCLOR 1254 (10%), Method: PREINCUBATION): inactive; negative
- mutagenic call (Strain/Indicator: TA98, Metabolic Activation: NONE, Method: PREINCUBATION): inactive; negative
- mutagenic call (Strain/Indicator: TA98, Metabolic Activation: RAT, LIVER, S-9, AROCLOR 1254 (10%), Method: PREINCUBATION): inactive; negative
- mutagenic call (Strain/Indicator: TA100, Metabolic Activation: HAMSTER, LIVER, S-9, AROCLOR 1254 (10%), Method: PREINCUBATION): inactive; negative
- mutagenic call (Strain/Indicator: TA100, Metabolic Activation: NONE, Method: PREINCUBATION): inactive; negative
- mutagenic call (Strain/Indicator: TA100, Metabolic Activation: RAT, LIVER, S-9, AROCLOR 1254 (10%), Method: PREINCUBATION): inactive; negative
- mutagenic call (Strain/Indicator: TA1535, Metabolic Activation: HAMSTER, LIVER, S-9, AROCLOR 1254 (10%), Method: PREINCUBATION): inactive; negative
- mutagenic call (Strain/Indicator: TA1535, Metabolic Activation: NONE, Method: PREINCUBATION): inactive; negative
- mutagenic call (Strain/Indicator: TA1535, Metabolic Activation: RAT, LIVER, S-9, AROCLOR 1254 (10%), Method: PREINCUBATION): inactive; negative
- mutagenic call (Strain/Indicator: TA1537, Metabolic Activation: HAMSTER, LIVER, S-9, AROCLOR 1254 (10%), Method: PREINCUBATION): inactive; negative
- mutagenic call (Strain/Indicator: TA1537, Metabolic Activation: NONE, Method: PREINCUBATION): inactive; negative
- mutagenic call (Strain/Indicator: TA1537, Metabolic Activation: RAT, LIVER, S-9, AROCLOR 1254 (10%), Method: PREINCUBATION): inactive; negative

Structure (SMILES): CC[C@@]1(O)C[C@H](O[C@H]2C[C@H](N(C)C)[C@H](O[C@H]3C[C@H](O)[C@H](O[C@H]4C[C@H](O)[C@H](O)[C@H](C)O4)[C@H](C)O3)[C@H](C)O2)c2c(cc3c(c2O)C(=O)c2c(O)ccc(O)c2C3=O)[C@H]1C(=O)OC
- mutagenic call (Strain/Indicator: TA97, Metabolic Activation: NONE, Method: STANDARD PLATE): inactive; negative
- mutagenic call [1]: inactive; negative
- mutagenic call (Strain/Indicator: TA102, Metabolic Activation: NONE, Method: STANDARD PLATE): active; positive
- mutagenic call (Strain/Indicator: TA104, Metabolic Activation: NONE, Method: STANDARD PLATE): active; positive
- mutagenic call (Strain/Indicator: TA2637, Metabolic Activation: NONE, Method: STANDARD PLATE): inactive; negative
